Legend:
[1] = Outcome variables of patients on each psychotropic drug broken down by demographic factors (Covariates tables); type: in vivo, human
Text: Various SNPs associated with, for example, the observation of various parameters of metabolic syndromes in patients on psychotropic drugs were screened. The endpoints analyzed were the blood levels of LDL, HDL, and glucose; blood pressure; body mass index; waist circumference; and metabolic syndromes index. The physiogenomic model was developed using the following procedure: 1) Establish a covariate model using only the demographic and clinical variables, 2) Screen for associated genetic markers by testing each SNP against the unexplained residual of the covariate model, and 3) Establish a revised model incorporating the significant associations from the SNP screen.

[2] = cited from earlier work

Cc1cc2c(s1)Nc1ccccc1N=C2N1CCN(C)CC1 [olanzapine]
BM (body mass) ([1]; Age 20-30): 87.06
Glucose (blood glucose level) ([1]; Age 20-30): 88.65
HDL (HDL cholesterol level) ([1]; Age 20-30): 48.55
LDL (LDL cholesterol level) ([1]; Age 20-30): 104.10
Log (TG) (triglyceride level) ([1]; Age 20-30): 5.086
TC (total cholesterol level) ([1]; Age 20-30): 189.00
Waist (waist circumference) ([1]; Age 20-30): 99.18
dBP (diastolic blood pressure) ([1]; Age 20-30): 75.15
sBP (systolic blood pressure) ([1]; Age 20-30): 118.20
BM (body mass) ([1]; Age 30-40): 83.17
Glucose (blood glucose level) ([1]; Age 30-40): 92.29
HDL (HDL cholesterol level) ([1]; Age 30-40): 47.68
LDL (LDL cholesterol level) ([1]; Age 30-40): 103.73
Log (TG) (triglyceride level) ([1]; Age 30-40): 5.168
TC (total cholesterol level) ([1]; Age 30-40): 189.82
Waist (waist circumference) ([1]; Age 30-40): 97.82
dBP (diastolic blood pressure) ([1]; Age 30-40): 74.14
sBP (systolic blood pressure) ([1]; Age 30-40): 117.32
BM (body mass) ([1]; Age 40-50): 79.34
Glucose (blood glucose level) ([1]; Age 40-50): 92.47
HDL (HDL cholesterol level) ([1]; Age 40-50): 52.40
LDL (LDL cholesterol level) ([1]; Age 40-50): 107.00
Log (TG) (triglyceride level) ([1]; Age 40-50): 4.968
TC (total cholesterol level) ([1]; Age 40-50): 202.00
Waist (waist circumference) ([1]; Age 40-50): 98.32
dBP (diastolic blood pressure) ([1]; Age 40-50): 78.10
sBP (systolic blood pressure) ([1]; Age 40-50): 119.10
BM (body mass) ([1]; Age 50-60): 95.73
Glucose (blood glucose level) ([1]; Age 50-60): 86.67
HDL (HDL cholesterol level) ([1]; Age 50-60): 49.67
LDL (LDL cholesterol level) ([1]; Age 50-60): 104.00
Log (TG) (triglyceride level) ([1]; Age 50-60): 5.373
TC (total cholesterol level) ([1]; Age 50-60): 204.67
Waist (waist circumference) ([1]; Age 50-60): 105.80
dBP (diastolic blood pressure) ([1]; Age 50-60): 87.00
sBP (systolic blood pressure) ([1]; Age 50-60): 136.33
BM (body mass) ([1]; Age 70-80): 44.40
Glucose (blood glucose level) ([1]; Age 70-80): 92.00
HDL (HDL cholesterol level) ([1]; Age 70-80): 68.00
LDL (LDL cholesterol level) ([1]; Age 70-80): 94.00
Log (TG) (triglyceride level) ([1]; Age 70-80): 4.159
TC (total cholesterol level) ([1]; Age 70-80): 174.0
Waist (waist circumference) ([1]; Age 70-80): 65.00
dBP (diastolic blood pressure) ([1]; Age 70-80): 66.00
sBP (systolic blood pressure) ([1]; Age 70-80): 100.0
BM (body mass) ([1]; Age <20): 65.00
Glucose (blood glucose level) ([1]; Age <20): 109.00
HDL (HDL cholesterol level) ([1]; Age <20): 28.00
LDL (LDL cholesterol level) ([1]; Age <20): 68.00
Log (TG) (triglyceride level) ([1]; Age <20): 4.787
TC (total cholesterol level) ([1]; Age <20): 120.00
Waist (waist circumference) ([1]; Age <20): 96.00
dBP (diastolic blood pressure) ([1]; Age <20): 77.00
sBP (systolic blood pressure) ([1]; Age <20): 109.00
BM (body mass) ([1]; All patients on the drug): 82.90
Glucose (blood glucose level) ([1]; All patients on the drug): 91.22
HDL (HDL cholesterol level) ([1]; All patients on the drug): 49.45
LDL (LDL cholesterol level) ([1]; All patients on the drug): 104.11
Log (TG) (triglyceride level) ([1]; All patients on the drug): 5.072
TC (total cholesterol level) ([1]; All patients on the drug): 192.60
Waist (waist circumference) ([1]; All patients on the drug): 98.21
dBP (diastolic blood pressure) ([1]; All patients on the drug): 76.12
sBP (systolic blood pressure) ([1]; All patients on the drug): 118.58
BM (body mass) ([1]; Gender female): 82.39
Glucose (blood glucose level) ([1]; Gender female): 97.53
HDL (HDL cholesterol level) ([1]; Gender female): 51.89
LDL (LDL cholesterol level) ([1]; Gender female): 118.94
Log (TG) (triglyceride level) ([1]; Gender female): 4.985
TC (total cholesterol level) ([1]; Gender female): 212.16
Waist (waist circumference) ([1]; Gender female): 100.74
dBP (diastolic blood pressure) ([1]; Gender female): 75.84
sBP (systolic blood pressure) ([1]; Gender female): 116.79
BM (body mass) ([1]; Gender male): 83.10
Glucose (blood glucose level) ([1]; Gender male): 88.98
HDL (HDL cholesterol level) ([1]; Gender male): 48.48
LDL (LDL cholesterol level) ([1]; Gender male): 98.54
Log (TG) (triglyceride level) ([1]; Gender male): 5.107
TC (total cholesterol level) ([1]; Gender male): 184.85
Waist (waist circumference) ([1]; Gender male): 97.21
dBP (diastolic blood pressure) ([1]; Gender male): 76.23
sBP (systolic blood pressure) ([1]; Gender male): 119.29
BM (body mass) ([1]; Heritage AA): 87.38
Glucose (blood glucose level) ([1]; Heritage AA): 98.31
HDL (HDL cholesterol level) ([1]; Heritage AA): 54.00
LDL (LDL cholesterol level) ([1]; Heritage AA): 109.14
Log (TG) (triglyceride level) ([1]; Heritage AA): 5.060
TC (total cholesterol level) ([1]; Heritage AA): 197.57
Waist (waist circumference) ([1]; Heritage AA): 96.82
dBP (diastolic blood pressure) ([1]; Heritage AA): 77.00
sBP (systolic blood pressure) ([1]; Heritage AA): 119.79
BM (body mass) ([1]; Heritage Cauc.): 81.98
Glucose (blood glucose level) ([1]; Heritage Cauc.): 89.24
HDL (HDL cholesterol level) ([1]; Heritage Cauc.): 48.16
LDL (LDL cholesterol level) ([1]; Heritage Cauc.): 103.53
Log (TG) (triglyceride level) ([1]; Heritage Cauc.): 5.115
TC (total cholesterol level) ([1]; Heritage Cauc.): 193.30
Waist (waist circumference) ([1]; Heritage Cauc.): 98.17
dBP (diastolic blood pressure) ([1]; Heritage Cauc.): 75.48
sBP (systolic blood pressure) ([1]; Heritage Cauc.): 118.38
BM (body mass) ([1]; Heritage Hisp.): 110.91
Glucose (blood glucose level) ([1]; Heritage Hisp.): 91.00
HDL (HDL cholesterol level) ([1]; Heritage Hisp.): 47.00
LDL (LDL cholesterol level) ([1]; Heritage Hisp.): 147.00
Log (TG) (triglyceride level) ([1]; Heritage Hisp.): 4.700
TC (total cholesterol level) ([1]; Heritage Hisp.): 216.00
Waist (waist circumference) ([1]; Heritage Hisp.): 144.00
dBP (diastolic blood pressure) ([1]; Heritage Hisp.): 91.00
sBP (systolic blood pressure) ([1]; Heritage Hisp.): 132.00
BM (body mass) ([1]; Heritage Other): 60.45
Glucose (blood glucose level) ([1]; Heritage Other): 93.50
HDL (HDL cholesterol level) ([1]; Heritage Other): 51.00
LDL (LDL cholesterol level) ([1]; Heritage Other): 61.50
Log (TG) (triglyceride level) ([1]; Heritage Other): 4.263
TC (total cholesterol level) ([1]; Heritage Other): 128.50
Waist (waist circumference) ([1]; Heritage Other): 86.00
dBP (diastolic blood pressure) ([1]; Heritage Other): 78.50
sBP (systolic blood pressure) ([1]; Heritage Other): 108.50
BM ([1]; patients on the named drug): 82.90
BMI ([1]; patients on the named drug): 27.12
Glucose ([1]; patients on the named drug): 91.22
HDL ([1]; patients on the named drug): 49.45
LDL ([1]; patients on the named drug): 104.11
Log (TG) ([1]; patients on the named drug): 5.072
MSI ([1]; patients on the named drug): −0.1290
TC ([1]; patients on the named drug): 192.60
Waist ([1]; patients on the named drug): 98.21
dBP ([1]; patients on the named drug): 76.12
sBP ([1]; patients on the named drug): 118.58
treated patients with induced weight gain, diabetes and other metabolic derangements [2]: 50%

From patent US8389247B2, “Physiogenomic method for predicting diabetes and metabolic syndromes induced by psychotropic drugs” (priority 2006, dated 2013)
